Literature values in patent US20110008428A1, “SOLID PHARMACEUTICAL COMPOSITION COMPRISING A NON-PEPTIDE ANGIOTENSIN II RECEPTOR ANTAGONIST AND A DIURETIC” (ratiopharm GmbH, priority 2008, published 2011).

Conditions: free acid form; physiological pH range of the gastro-intestinal tract, between pH 1-7

- solubility in aqueous systems: very poor
Structure (SMILES): CCCc1nc2c(C)cc(-c3nc4ccccc4n3C)cc2n1Cc1ccc(-c2ccccc2C(=O)O)cc1 [Telmisartan, 4′-[(1,4′-dimethyl-2′-n-propyl-[2,6′-bi-1H-benzimidazol]-1′-yl)methyl]-[1,1′-biphenyl]-2-carboxylic acid]
